The text below walks through data of PMC11915509, “Small molecule inhibitors of hnRNPA2B1–RNA interactions reveal a predictable sorting of RNA subsets into extracellular vesicles” (Nucleic Acids Research, 2025).

Structures are written as SMILES.

The subject of data set [1] is hnRNPA2B1 protein association with purine-rich RNA probe. In words: RNA pull-down with biotinylated EXOmotif probe after cell treatment, immunoblotting. It is filed as cell-based, mouse. The note with it: NSC34 cells, 6 h, 5 μM compound. As to the method: To prepare native protein lysates, 1–3 × 10^6 NSC34 cells were lysed in buffer R-Lysis [25 mM HEPES, pH 7.5, 100 mM NaCl, 1× protease inhibitor (Thermo Fisher, 78429)] and subjected to a water-bath sonication (35–40 amplitude, 6–7 cycles of 7 s on and 45 s off). After a centrifugation at 14 000 rpm for 20 min at 4°C, the supernatant was collected and 200 μg were incubated with 5 μl of buffer equilibrated Dynabeads^TM M-280 Streptavidin (Invitrogen, 11205D) for 15 min at 4°C in rotation to perform a pre-clearing step. After the magnetic separation, the pre-cleared lysate was incubated with 10 μl of 100 μM RNA biotinylated probes (or 400 ng of biotinylated EV-RNA) and incubated for 1 h at 4°C in rotation. Then, 5 μl/sample of beads were added and the sample were put again in rotation for 20 min at 4°C. […]
Cells were lysed in lysis buffer [50 mM Tris–HCl, pH 7.4, 150 mM NaCl, 1 mM EDTA, 0.25% NP-40, 0.1% Triton X-100, 0.1% sodium dodecyl sulphate, 1× protease inhibitor (Thermo Fisher, 78429)]. […] The signal was measured with Amersham ECL HRP-Conjugated Antibodies (Cytiva) using BioRad Chemidoc XRS+.
(Immunoblotting shows a protein as a band on a membrane.)

The subject of a further data set is EXO-motif RNA. In words: Fluorescence indicator displacement (FID) melting curve, EXO-motif RNA. The format is binding. The note with it: 5 μM RNA, 25 μM compound, Midori green. Here is the method: (§1) Five μM RNA EXO motif were mixed with 25 μM compounds in AlphaBuffer (25 mM HEPES, pH 7.4, 100 mM NaCl, 0.01% BSA) to a final volume of 20 μl. Absorbance spectrum (200–530 nm) was measured using Tecan Spark® microplate reader with a NanoQuant plate at room temperature. In fluorescence indicator displacement (FID), a 2× final concentration of Midori green advanced (Resnova) was added to the samples and the melting curve measured using Bio-Rad CFX96™ System from 30°C to 90°C.

Another data set has as its system HEK293T cells. Kind of data set: Cell viability dose response, HEK293T. Particulars: 24 hr. The format is cell-based, human. As to the method:
(§2) Supplementary Figure S6. Cell viability upon treatment with Hematein. Cells were exposed to increasing concentrations of Hematein or DMSO (control vehicle) for 24 hr under standard growth conditions. […] In both cases a range of drug tolerance was observed before the drop of viability over 10 µM. The graph indicates mean and SD of two independent experiments.

The test system of another data set is NF-kB. In words: NF-kB luciferase reporter in EV-recipient HEK293T cells. Particulars: EVs from hnRNPA2B1 OE HEK293T donor cells treated 5 μM 6 h; recipient cells 8 h. It is filed as cell-based, human.
In the next data set the test system is EXO-motif RNA probe. Kind of data set: Absorbance scan of compounds mixed with EXO-motif RNA. The format is binding. The note with it: EXO-motif probe, 1:5 micromolar ratio with compound, room temperature. Here is the method:
as §1

Another data set deals with NSC34 cells. In words: Cell viability dose response, NSC34. Particulars: NSC34, 24 hr. The format is cell-based, mouse. As to the method: as §2
The target of data set [2] is T1, hnRNPA2B1-RNA 114 probe interaction (Homo sapiens, UniProt P22626).
T1 construct: purified a human full-length, GST-tagged protein expressed in Escherichia coli cells; made in house; host or cells: E. coli BL21 (DE3)
T1 sequence (P22626 whole entry): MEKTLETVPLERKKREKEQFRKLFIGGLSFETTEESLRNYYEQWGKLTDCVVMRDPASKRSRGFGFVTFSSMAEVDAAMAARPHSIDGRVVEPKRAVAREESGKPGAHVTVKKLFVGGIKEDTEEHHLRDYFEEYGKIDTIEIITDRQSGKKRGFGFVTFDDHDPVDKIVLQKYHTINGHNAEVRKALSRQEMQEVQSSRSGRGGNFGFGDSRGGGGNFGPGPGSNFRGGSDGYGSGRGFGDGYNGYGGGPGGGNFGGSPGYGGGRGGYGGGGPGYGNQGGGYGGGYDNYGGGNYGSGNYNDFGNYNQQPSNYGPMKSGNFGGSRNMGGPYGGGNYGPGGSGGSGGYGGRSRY
In words: AlphaScreen with RNA 114 probe and compounds. It is filed as binding. Particulars: 250 nM of compounds, 14 nM RNA 114 probe. A general note: Alpha assays give light when donor and acceptor beads are brought close together.
Method: The assays were performed in OptiPlate-384-well plates (PerkinElmer, 6007299) in 20 μl final volume. The ligands were diluted in AlphaBuffer [25 mM HEPES, pH 7.4, 100 mM NaCl, 0.01% bovine serum albumin (BSA)] and tested using AlphaScreen GST Detection Kit (PerkinElmer, 6760603C). For the assay optimization, different concentrations of the RNA probes (0–100 nM) were incubated with different concentrations of GST-hnRNPA2B1 (0–60 nM) in the presence of streptavidin Donor beads and anti-GST-Acceptor beads (PerkinElmer) (20 μg/ml final concentration). For the reactions, 4 μl of the RNA probes were first added to the plate, then 16 μl of a mix containing all the other components was added, and the plate was incubated at room temperature for 1 h in the dark.

From the text for NF-kB: To obtain some preliminary information on the bioactivity of identified compounds in relation to EV function, we explored the potential activation NF-kB in EV-recipient cells as a readout. […] We, therefore, used HEK293T cells as EV-recipient cells upon transfecting them with an NF-kB-responsive promoter activating the luciferase reporter. To work with an experimental set up considering the post-transcriptional effects on the readout, we evaluated if the expression of the recombinant hnRNPA2B1 could induce secretion of EVs capable of activating NF-kB if further exposed to autologous cells. […] We, therefore, exploited this system to test compounds including some indication on the relevance of the EV-RNA cargo in mediating the luciferase activation in recipient cells. […] Next, we washed with PBS and incubated cells with serum-free media for additional 24 h to recover EVs. We exposed these EVs for 8 h to HEK293T cells previously seeded in 96-well plate and transfected with the luciferase reporter plasmid for 24 h. […]
Paracrine effect on NF-kB activation of EVs deriving from RBP-conditioned and treated cells. […] Firefly luminescence was normalized on cellular protein content at the end point on the corresponding sample. […]

As a reminder, the IC50 is the midpoint of a concentration-inhibition curve. For `O=C1C=C2CC3(O)COc4c(ccc(O)c4O)C3=C2C=C1O` (stereo not drawn) [H, hematein], the “association of hnRNPA2B1 protein with exogenous purine-rich RNA probe” value in data set [1] was “most effective”. The “thermal shift of the EXO-motif RNA” value with EXO-motif RNA stood at 9.5 °C. For the same compound, the “concentration of drop of viability” value in the data set with HEK293T cells and in the data set on NSC34 cells was “over 10 µM” each time. In addition, the IC50 was roughly 41 µM in the data set with HEK293T cells (Homo sapiens, HEK-293T) and roughly 78 µM with NSC34 cells (Mus musculus, NSC-34). Besides, the “EV-mediated, hnRNPA2B1-induced NF-kB activation” value in the data set with NF-kB was “significantly counteracted”. In addition, the “absorbance shifts, 300-400 nm” value with EXO-motif RNA probe is “absorbance shifts”. The “interference with RNA 114 probe interaction” value in data set [2] is listed as “most effective inhibitors”.
